From patent US10391104B2, “Application of antidepressant compound in preparation of antidepressant drugs and antidepressant health-care foods” (ZHEJIANG ACADEMY OF MEDICAL SCIENCES, priority 2015, dated 2019)

Columns and labels:
male ICR mice = assay: preliminary acute toxicity test; assay type: in vivo, mouse; settings: for toxic and side reaction: preliminary acute toxicity test, no doses given; for toxic reaction: four times in 24 h, observed 7 days
Experimental: (§1) Experimental method: 20 clean male ICR mice were randomly divided into two groups, and fasted for 12 h before the experiment. Sarcostin was administered many times based on its maximum dissolution amount and maximum administration volume. For the oral administration group, sarcostin was prepared with ultra-pure water (maximum dissolution amount: 1.5 mg/mL), and was intragastrically administered four times in 24 hours with 0.3 ml/10 g body weight each time, and with the total dosage of 180 mg/kg. For the intraperitoneal injection group, sarcostin was prepared with normal saline (maximum dissolution amount: 1.0 mg/mL), and was intraperitoneally injected four times in 24 hours with 0.3 ml/10 g body weight each time, and with the total dosage of 120 mg/kg.

mice = assay: antidepressant activity test of compounds 3, 23 and derivatives; assay type: in vivo, mouse; settings: no doses given
Experimental: The solvent control and the positive control with fluoxetine and imipramine were established in the experiment.
(§2) Administration method: totally 6 dosage groups of sarcostin were established: 0.05, 0.1, 0.25, 0.5, 1, 5 mg/kg. Male Kunming mice were randomly grouped in the experiment. All test samples were intraperitoneally administered at a volumetric dose of 0.1 mL/10 g. Administration frequency and time: test was made twice respectively in 0 and 19 h, and test was made in 24 h after the first administration.

Male Kunming mice [1] = assay: mouse tail suspension test; assay type: in vivo
Experimental: (§3) Experimental method: the experiment was made using the mouse forced swimming test and tail suspension test according to the experimental methodology of pharmacology (see the description of these methods in Xu Shuyun et al. Experimental Methodology of Pharmacology. People's Medical Publishing House, 2005: 807-808) by subacute treatment (administered twice within 24 hours) and by intraperitoneal administration. The solvent control and the positive control with fluoxetine and imipramine were established in the experiment.
as §2, with “administration. Positive control: 15 mg/kg of fluoxetine and 15 mg/kg of imipramine.” for “administration.”

Male Kunming mice [2] = assay: mouse forced swimming test; assay type: in vivo; settings: for effect on immobility time compared with normal saline control: 15 mg/kg
Experimental: as §3
as §2, with “administration. Positive control: 15 mg/kg of fluoxetine and 15 mg/kg of imipramine.” for “administration.”

[3] = maximum dissolution amount; assay type: physicochemical
Experimental: as §1

[4] = tail suspension test, 15 mg/kg i.p., twice within 24 h (0 and 19 h), test at 24 h
[5] = 15 mg/kg i.p., twice within 24 h (0 and 19 h), test at 24 h

Compound: CNc1ccccc1C(=O)OC1CC2C3(C)CCC(O)CC3=CCC2(O)C2(O)CCC(O)(C(C)=O)C12C (stereo not drawn) [compound 23, 12-O-(N-methyl) anthraniloyl deacetylmetaplexigenin]
- toxic and side reaction (male ICR mice): no significant toxic and side reaction
- antidepressant activity (mice): significant antidepressant activities

Compound: CC=C(C)C(=O)OC(C)C1(O)CCC2(O)C3(O)CC=C4CC(O)CCC4(C)C3CC(OC(=O)C(C)=CC)C12C (stereo not drawn) [compound 3, 12-O-tigloyl-20-O-tigloylsarcostin]
- toxic and side reaction (male ICR mice): no significant toxic and side reaction
- antidepressant activity (mice): significant antidepressant activities

Compound: CNCCC(Oc1ccc(C(F)(F)F)cc1)c1ccccc1 (stereo not drawn) [Fluoxetine, reference compound]
- effect on immobility time compared with normal saline group (Male Kunming mice [1]; tail suspension test, 15 mg/kg): significantly reduced the immobility time
- Immobility time (Average value, s) (Male Kunming mice [1]; [4]): 132.45 s
- effect on immobility time compared with normal saline control (Male Kunming mice [2]): significantly reduced the immobility time
- Immobility time (Average value, s) (Male Kunming mice [2]; [5]): 79.00 s

Compound: CN(C)CCCN1c2ccccc2CCc2ccccc21 [Imipramine, reference compound]
- effect on immobility time compared with normal saline group (Male Kunming mice [1]; tail suspension test, 15 mg/kg): significantly reduced the immobility time
- Immobility time (Average value, s) (Male Kunming mice [1]; [4]): 155.37 s
- effect on immobility time compared with normal saline control (Male Kunming mice [2]): significantly reduced the immobility time
- Immobility time (Average value, s) (Male Kunming mice [2]; [5]): 92.05 s

Compound: C[C@H](O)[C@]1(O)CC[C@@]2(O)[C@]1(C)[C@H](O)C[C@@H]1[C@@]3(C)CC[C@H](O)CC3=CC[C@]12O [Sarcostin]
- maximum dissolution amount ([3]; normal saline): 1.0 mg/mL
- maximum dissolution amount ([3]; ultra-pure water): 1.5 mg/mL
- preferred dosage (Male Kunming mice [1]; tail suspension test): 0.5 mg/kg
- Immobility time (Average value, s) (Male Kunming mice [1]; tail suspension test, 0.05 mg/kg i.p., twice within 24 h): 177.94 s
- Immobility time (Average value, s) (Male Kunming mice [1]; tail suspension test, 0.1 mg/kg i.p., twice within 24 h): 167.77 s
- Immobility time (Average value, s) (Male Kunming mice [1]; tail suspension test, 0.25 mg/kg i.p., twice within 24 h): 207.60 s
- Immobility time (Average value, s) (Male Kunming mice [1]; tail suspension test, 0.5 mg/kg i.p., twice within 24 h): 166.46 s
- Immobility time (Average value, s) (Male Kunming mice [1]; tail suspension test, 1 mg/kg i.p., twice within 24 h): 200.99 s
- Immobility time (Average value, s) (Male Kunming mice [1]; tail suspension test, 5 mg/kg i.p., twice within 24 h): 177.05 s
- antidepressant trend (Male Kunming mice [1]; tail suspension test, 0.1, 0.5 and 0.05 mg/kg groups): showed antidepressant trend
- effect on immobility time compared with normal saline group (Male Kunming mice [1]; tail suspension test, all sarcostin doses): did not significantly reduce the immobility time
- toxic reaction (male ICR mice; intragastric, total 180 mg/kg): without obvious toxic and side reaction
- toxic reaction (male ICR mice; intraperitoneal injection, total 120 mg/kg): without obvious toxic and side reaction
- preferred dose (Male Kunming mice [2]): 0.1 mg/kg
- Immobility time (Average value, s) (Male Kunming mice [2]; 0.05 mg/kg i.p., twice within 24 h): 85.13 s
- Immobility time (Average value, s) (Male Kunming mice [2]; 0.1 mg/kg i.p., twice within 24 h): 83.63 s
- Immobility time (Average value, s) (Male Kunming mice [2]; 0.25 mg/kg i.p., twice within 24 h): 112.63 s
- Immobility time (Average value, s) (Male Kunming mice [2]; 0.5 mg/kg i.p., twice within 24 h): 118.19 s
- Immobility time (Average value, s) (Male Kunming mice [2]; 1 mg/kg i.p., twice within 24 h): 125.44 s
- Immobility time (Average value, s) (Male Kunming mice [2]; 5 mg/kg i.p., twice within 24 h): 91.50 s
- antidepressant activity compared with normal saline control (Male Kunming mice [2]; 0.05 to 0.5 mg/kg): significant antidepressant activities
